This note sets out measurements from US4293713A, “Novel 1,1,3,5-substituted biuret compound and a pharmaceutical composition containing the same” (priority 1979, dated 1981).

Where two headings read alike, the source gives them in different places.

In data set [1] the test system is ddy strain of male mice. Put plainly: Analgesic activity, acetic acid-induced stretching method. Particulars: Mus musculus, read-out: Analgesic activity, acetic acid-induced stretching method, inhibitory ratio. Type of data set: in vivo, mouse (ddy strain. On the procedure:
(§1) Next, several tests for determining the pharmacological properties, in that acute toxicity, anti-pyretic activity, analgesic activity and anti-inflammatory activity of the present 1,1,3,5-substituted biuret compounds of the formula (1) were conducted and the test results are shown in Table (2). In the tests, each compounds to be tested was used as a suspension in 0.25% carboxymethylcellulose solution. Methods for testing are explained as follows:
According to the method reported by Koster et al., [Fed. Proc., Vol. 18, pp. 412 (1959)], the ddy strain of male mice (body weight, 20-25 g) were used as test animals. The mice were fasted overnight, 100 mg/kg body weight of the test compound was administered orally, then 1 hour after the administration, 0.2 ml of 0.7% acetic acid solution was injected intraperitoneally. The acetic acid-induced stretching symptom of mouse was observed. Analgesic activity of the test compound was calculated as the inhibitory ratio (%). In Table 2, the values in Parentheses show the data obtained from the test by using the dosage other than 100 mg/kg body weight. Further, the values indicated with Δ marks show 50% effective dose, ED50 (mg/kg body weight).

The subject of data set [2] is Wistar strain of male rats. In words: Anti-inflammatory activity, acute carrageenin-induced inflammatory test. Particulars: Rattus norvegicus. In kind it is in vivo, rat (Wistar strain. The procedure: as §1
According to the method of acute carrageenin-induced inflammatory test [Folia Pharmacologia Japonica, Vol. 56, pp. 575 (1960)], the Wistar strain of male rats (body weight, 150-180 g) were used as test animals. The rats were fasted overnight, 100 mg/kg body weight of the test compound was administered orally, then 1 hour after the administration, 0.1 ml of 1% carrageenin solution, as the inflammation inducing agent, was injected subcutaneously to the hindpaw of the rat and the volume of the hindpaw was measured at time sequences. Anti-inflammatory activity of the test compound was calculated as inflammation inhibitory ratio (%) at 3 hours after the injection of the inflammation inducing agent.

For data set [3], the system named is Wistar strain of male rats. In words: Anti-pyretic activity (dry-yeast induced fever). The settings on record: oral, up to 4 hours after administration, dose not given. Type of data set: in vivo, rat (Wistar strain. On the procedure:
as §1
According to the method reported by Tanabe [Folia Pharmacologia Japonica, Vol. 73, pp. 803 (1977)], the Wistar strain of male rats (150-180 g body weight) were used as test animals. The rats were fasted overnight, and 1 ml/100 g (body weight) of 10% dry-yeast suspension were subcutaneously injected on the back of the rats. Five hours after the injection, the test compound was administered orally, then the body temperature of the rat was measured at time sequences. Anti-pyretic activity of the test compound was determined as the FI (febril index) by integrating pyrogenetic curve up to 4 hours after the administration of the test compound with time, and indicated as inhibitory ratio (%) shown by the following formula, [formula]

Data set [4] concerns ddy strain of male mice. In words: Acute toxicity (oral, 7 days observation). Type of data set: in vivo. Particulars: oral, mice, 7 days. On the procedure:
as §1
The ddy strain of male mice (body weight, 20-25 g) were used as test animals. The mice were fasted overnight and the compound to be tested was administered orally. […] The lethal dose (mg/kg, body weight) of the test compound was determined in connection with the death number of mice/the number of mice tested. In Table 2, the values indicated with Δ marks are 50% lethal dose, LD50 (mg/kg, body weight).

Data set [5] relates to ddy strain of male mice. Put plainly: Analgesic activity, Haffner method. Particulars: with threshold morphine hydrochloride s.c.; for Analgesic activity, Haffner method, inhibitory ratio: 100 mg/kg oral. In kind it is in vivo, mouse (ddy strain. The procedure:
as §1
According to the modified method reported by Fujimura et al., [Bulletin of the Institute for Chemical Research, Kyoto University, No. 25, pp. 36 (1951)], the ddy strain of male mice (body weight, 20-25 g) were used as test animals. The mice were fasted overnight, 100 mg/kg body weight of the test compound was administered orally, then 45 minutes after the administration, the threshold amount (1.5-2.5 mg/kg body weight) of morphine hydrochloride was injected subcutaneously. Then 1-hour pain reaction of the mouse caused by a clamp was observed. Analgesic activity of the test compound was calculated as the inhibitory ratio (%). In Table 2, the values in parentheses show the data obtained from the test by using the dosage other than 100 mg/kg body weight. Further, the values indicated with Δ marks show 50% effective dose, ED50 (mg/kg body weight).

The mark [6] stands for this setting: po, 3 h, read-out: Anti-inflammatory activity, inflammation inhibitory ratio.
Where [7] appears, read: po, 2 h, read-out: Anti-inflammatory activity, inflammation inhibitory ratio (2 hours value).
Where [8] appears, read: 100 mg/kg oral, rats, 2 hours value, read-out: Anti-inflammatory activity, inflammation inhibitory ratio (2 hours value).

In the case of `CN(C)C(=O)N(C)C(=O)Nc1c(F)c(F)cc(F)c1F` [compound 4, 1,1,3-Trimethyl-5-(2,3,5,6-tetrafluorophenyl)-biuret], the results for the inhibition in vivo at 100 mg/kg (in the data set with ddy strain of male mice [1] (po); in data set [2] (setting [6])) were 87.5% and 24%, respectively. Moreover, the “Anti-pyretic activity, inhibitory ratio of febril index (FI)” value in data set [3] amounted to 33%. Besides, the entries for the “Acute toxicity, death number of mice/number of mice tested” value with ddy strain of male mice [4] (500 mg/kg) and in the data set with ddy strain of male mice [4] (1000 mg/kg) were 0/4 and 4/4, respectively. The “Analgesic activity, Haffner method, inhibitory ratio” value with ddy strain of male mice [5] was 50%.

In the case of `CN(C)C(=O)N(C)C(=O)Nc1ccccc1Cl` [compound 5, 1,1,3-Trimethyl-5-(2-chlorophenyl)biuret], the inhibition in vivo at 100 mg/kg worked out at 50% in the data set on ddy strain of male mice [1] (po) and 38% in data set [2] (100 mg/kg oral, rats, 3 hours after carrageenin, read-out: Anti-inflammatory activity, inflammation inhibitory ratio). The “Anti-pyretic activity, inhibitory ratio of febril index (FI)” value in data set [3] amounted to 66%. Further, the “Acute toxicity, death number of mice/number of mice tested” value in the data set with ddy strain of male mice [4] (2000 mg/kg) is 0/4. The “Analgesic activity, Haffner method, inhibitory ratio” value in the data set on ddy strain of male mice [5] came to 37.5%.

For `CN(C)C(=O)N(C)C(=O)Nc1ccccc1C(F)(F)F` [compound 12, 1,1,3-Trimethyl-5-(2-trifluoromethylphenyl)biruet], the inhibition in vivo at 100 mg/kg is 12.5% with ddy strain of male mice [1] (po) and 66% in data set [2] (setting [6]). Further, in data set [3], the “Anti-pyretic activity, inhibitory ratio of febril index (FI)” value is on record as 65%. Moreover, the “Acute toxicity, death number of mice/number of mice tested” value in the data set on ddy strain of male mice [4] (1000 mg/kg) is listed as 1/4. For the same molecule, in the data set on ddy strain of male mice [5], the “Analgesic activity, Haffner method, inhibitory ratio” value is reported as 37.5%.

On to `CN(C)C(=O)N(C)C(=O)Nc1cccc(C(F)(F)F)c1` [compound 13, 1,1,3-Trimethyl-5-(3-trifluoromethylphenyl)biuret], for which the inhibition in vivo at 100 mg/kg is 37.5% in the data set on ddy strain of male mice [1] (po) and 32% in data set [2] (setting [7]). Besides, the “Anti-pyretic activity, inhibitory ratio of febril index (FI)” value in data set [3] is 62%. Also, the “Acute toxicity, death number of mice/number of mice tested” value in the data set with ddy strain of male mice [4] (1000 mg/kg) is 0/4; in the data set on ddy strain of male mice [4] (2000 mg/kg) it was 4/4. Also, the “Analgesic activity, Haffner method, 50% effective dose, ED50 (values with Δ marks)” value with ddy strain of male mice [5] (oral, range in parentheses) is 64(37-112) mg/kg.

For `CN(C)C(=O)N(C)C(=O)Nc1ccc(N(C)C)cc1` [compound 14, 1,1,3-Trimethyl-5-(4-dimethylaminophenyl)biuret], the inhibition in vivo at 100 mg/kg is 62.5% in the data set with ddy strain of male mice [1] (po) and 32% in data set [2] (setting [8]). Besides, the “Anti-pyretic activity, inhibitory ratio of febril index (FI)” value in data set [3] was 26%. Besides, in the data set on ddy strain of male mice [4] (2000 mg/kg), the “Acute toxicity, death number of mice/number of mice tested” value is 0/4. In the data set with ddy strain of male mice [5], the “Analgesic activity, Haffner method, inhibitory ratio” value stood at 50%.

Turning to `CN(C)C(=O)N(C)C(=O)Nc1ccc([N+](=O)[O-])cc1` [compound 15, 1,1,3-Trimethyl-5-(4-nitrophenyl)biuret], the inhibition in vivo at 100 mg/kg in the data set on ddy strain of male mice [1] (100 mg/kg oral, mice) was 100%; in data set [2] (setting [6]), 32%. For the same molecule, in data set [3], the “Anti-pyretic activity, inhibitory ratio of febril index (FI)” value was 26%. Also, the “Acute toxicity, death number of mice/number of mice tested” value in the data set on ddy strain of male mice [4] (500 mg/kg) is recorded as 2/4. For the same molecule, the “Analgesic activity, Haffner method, inhibitory ratio” value with ddy strain of male mice [5] was found to be 50%.

Regarding `COc1ccccc1NC(=O)N(C)C(=O)N(C)C` [compound 16, 1,1,3-Trimethyl-5-(2-methoxyphenyl)biuret], the inhibition in vivo at 100 mg/kg with ddy strain of male mice [1] (po) came to 37.5%; in data set [2] (setting [8]), 35%. Also, the “Anti-pyretic activity, inhibitory ratio of febril index (FI)” value in data set [3] came out at 13%. The “Acute toxicity, death number of mice/number of mice tested” value is 0/4 with ddy strain of male mice [4] (1000 mg/kg) and 2/4 in the data set on ddy strain of male mice [4] (2000 mg/kg). The “Analgesic activity, Haffner method, inhibitory ratio” value in the data set with ddy strain of male mice [5] stood at 25%.

Turning to `Cc1cccc(NC(=O)N(C)C(=O)N(C)C)c1` [compound 21, 1,1,3-Trimethyl-5-(3-methylphenyl)biuret], the inhibition in vivo at 100 mg/kg worked out at 75% with ddy strain of male mice [1] (po) and 28% in data set [2] (setting [6]). Also, in data set [3], the “Anti-pyretic activity, inhibitory ratio of febril index (FI)” value was determined as 31%. In the data set on ddy strain of male mice [4] (2000 mg/kg), the “Acute toxicity, death number of mice/number of mice tested” value was 2/4. In addition, the “Analgesic activity, Haffner method, inhibitory ratio” value in the data set on ddy strain of male mice [5] is on record as 37.5%.

Consider `CC(=O)c1ccc(NC(=O)N(C)C(=O)N(C)C)cc1` [compound 27, 1,1,3-Trimethyl-5-(4-acetylphenyl)biuret], for which the inhibition in vivo at 100 mg/kg in the data set on ddy strain of male mice [1] (100 mg/kg oral, mice) stood at 62.5%; in data set [2] (setting [7]) it was 31%. Also, the “Anti-pyretic activity, inhibitory ratio of febril index (FI)” value in data set [3] turned out to be 36%. Also, the “Acute toxicity, death number of mice/number of mice tested” value with ddy strain of male mice [4] (500 mg/kg) is on record as 0/4; in the data set on ddy strain of male mice [4] (1000 mg/kg), 4/4. The “Analgesic activity, Haffner method, inhibitory ratio” value in the data set with ddy strain of male mice [5] is 37.5%.
